Assay results published in patent US20210177879A1, “VITAMIN D RECEPTOR AGONIST” (Guanghzou University of Chinese Medicine, priority 2018, published 2021).

Experiments:
[1] = tested on: peripheral blood macrophages; experiment: Typing of peripheral blood macrophages by flow cytometry; format: in vivo, Balb/c mice; details: compared with normal group
Description: Experimental method: 90 Balb/c mice of 6-8 weeks were purchased from the Experimental Animal Center in Guangzhou University of Chinese Medicine, weighed about 18-22 g, and subjected to adaptive feeding for 10 days. Modeling was divided into three stages. In the first stage, except for the normal group of animals being given saline injection, each of the other animals were intraperitoneally injected with a carcinogen AOM (10 mg/kg), and given free access to 2% DSS water from the next day for 7 days, and then given access to replaced regular drinking water for 14 days. In the second stage, the animals were given free access to 2% DSS water for 10 days, and then given access to replaced regular drinking water for 14 days. In the third stage, the animals were given free access to 2% DSS water for 10 days, and then given access to replaced regular drinking water for 11 days. The normal group was given access to regular drinking water throughout the experiment. The diet, water drinking and body weights of the animals were recorded daily and DAI scores were made, and the animals were killed and harvested at the 10th week. In this experiment, the animals were divided into groups and administrated on the first day of a modeling period of the second stage, and the total number of groups was set to 5 groups. […] Dosing was conducted daily until dissection. […]

VDR = experiment: Detection of acting target of monotropein: VDR expression (Western blot, immunohistochemistry); format: in vivo, Balb/c mice
Description: Experimental method: 90 Balb/c mice of 6-8 weeks were purchased from the Experimental Animal Center in Guangzhou University of Chinese Medicine, weighed about 18-22 g, and subjected to adaptive feeding for 10 days. Modeling was divided into three stages. In the first stage, except for the normal group of animals being given saline injection, each of the other animals were intraperitoneally injected with a carcinogen AOM (10 mg/kg), and given free access to 2% DSS water from the next day for 7 days, and then given access to replaced regular drinking water for 14 days. […] The diet, water drinking and body weights of the animals were recorded daily and DAI scores were made, and the animals were killed and harvested at the 10th week. […]
The animals were anesthetized and harvested, and the liver, spleen, thymus and testis were weighed to calculate the organ coefficient; the colon tissue was taken, measured with a ruler for the length, and measured with a vernier caliper for the thickness, and the number and size of tumors and degree of colonic ulceration and adhesion were recorded; respective tissues were cut into small pieces and fixed, and the remaining tissues were frozen and stored; and the fixed tissues were used for HE staining and immunohistochemistry.
A potential acting target of monotropein for interfering with the colon cancer was detected.

HT29 colon cancer cells = experiment: In vitro proliferation inhibition of HT29 colon cancer cells; format: cell-based; details: concentration of 1 uM; compared with blank control group
Description: (§1) The HT29 cells were thawed, and cultured in a changed medium after 24 hours. Medium preparation method: 6% serum, 1% of a bispecific antibody+a 1640 basal medium. After grown to confluent, the cells were digested and subcultured to expand the number of cells. When reached the required amount, the cells were digested by trypsin, centrifuged, and resuspended in PBS to prepare a cell suspension of 1×10^8 cells/ml. A part of the cell suspension was added with the monotropein, desacetyl asperulosidic acid, asperuloside, and asperulosidic acid respectively, and the inhibition rate (%) of tumor cell proliferation by each of these different compounds was examined.

HT29 transplanted tumor = experiment: Transplanted tumor of HT29 colon cancer cells in nude mice; format: in vivo; details: 2 mg/kg in combination with 5-fluorouracil at half dose (20 mg/kg), once a day; effect comparable to 5-fluorouracil alone 40 mg/kg
Description: as §1
Male adult nude mice, which had the body weights of 20-24 g, were purchased from Guangdong Medical Laboratory Animal Center. After 7 days of adaptive feeding of the animals, except for the blank group, the remaining animals were injected with 0.2 ml of a cell suspension in PBS at ventrodorsal and scapula sites of them, the response conditions of the animals were observed, and the body weights of the animals were determined once a week. After 2 weeks of observation, the animals were grouped into the following groups according to tumor size: a blank group; a model group; a 5-fluorouracil control group (5-Full, 40 mg/kg); monotropein+5-fluorouracil (2 mg/kg monotropein+20 mg/kg 5-fluorouracil), desacetyl asperulosidic acid+5-fluorouracil (2 mg/kg desacetyl asperulosidic acid+20 mg/kg 5-fluorouracil), asperuloside+5-fluorouracil (2 mg/kg asperuloside+20 mg/kg 5-fluorouracil), asperulosidic acid+5-fluorouracil (2 mg/kg asperulosidic acid+20 mg/kg 5-fluorouracil), these groups being labeled as: Mo, As, Aa, Da. Each group included 8 animals; and administration was conducted once a day.
The status, death conditions, and eating and drinking conditions of the animals were observed daily. The body weights of the animals were determined once a week and the tumor size of the animals was determined every 4 days. The tumor volume of the animals was determined by using a vernier caliper. After 1 month of administration, the animals were sacrificed after blood was sampled from the orbit thereof, and the tumor was separated and weighed.

[2] = tested on: SMB-231 pancreatic cancer cells; experiment: In vitro proliferation inhibition of SMB-231 pancreatic cancer cells; format: cell-based; details: concentration of 1 uM; compared with blank control group
Description: as §1, with “SMB-231 pancreatic cancer” for “HT29”

## O=C(O)C1=CO[C@@H](O[C@@H]2O[C@H](CO)[C@@H](O)[C@H](O)[C@H]2O)[C@H]2[C@@H]1C=C[C@]2(O)CO [monotropein]
[1]
  M1/M2 ratio of peripheral blood macrophages: up-regulating trend
VDR; colon cancerous sites of AOM/DSS mice
  expression of VDR, immunohistochemistry: up-regulated the expression of VDR
VDR; colon of AOM/DSS mice
  expression of intestinal VDR, Western blot: mainly promoted the expression of intestinal VDR
HT29 colon cancer cells
  proliferation of HT29 colorectal cancer cells in vitro: significantly inhibit the proliferation
HT29 transplanted tumor
  tumor proliferation in HT29 tumor-bearing mice: significantly inhibit tumor proliferation
[2]
  proliferation of SMB-231 pancreatic cancer cells in vitro: significantly inhibit the proliferation
